Measured values published in patent US10550105B2 (Ribon Therapeutics Inc., priority 2018, dated 2020).

Target: PARP7 (Homo sapiens (Human), UniProt Q7Z3E1)
Assay: Enzymatic assay for inhibition of PARP7: TR-FRET displacement of biotinylated Probe A from the TIPARP active site
Type: binding
Details: Table A-1
Procedure, shortened: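 Titrated compounds compete with the biotinylated probe; after an additional 30 min incubation at 25° C, time-delayed fluorescence (90 μs) is measured. Inhibition curves use a Hill coefficient that normally floats but may be held at 1.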

Sequence of PARP7 (Q7Z3E1 whole entry): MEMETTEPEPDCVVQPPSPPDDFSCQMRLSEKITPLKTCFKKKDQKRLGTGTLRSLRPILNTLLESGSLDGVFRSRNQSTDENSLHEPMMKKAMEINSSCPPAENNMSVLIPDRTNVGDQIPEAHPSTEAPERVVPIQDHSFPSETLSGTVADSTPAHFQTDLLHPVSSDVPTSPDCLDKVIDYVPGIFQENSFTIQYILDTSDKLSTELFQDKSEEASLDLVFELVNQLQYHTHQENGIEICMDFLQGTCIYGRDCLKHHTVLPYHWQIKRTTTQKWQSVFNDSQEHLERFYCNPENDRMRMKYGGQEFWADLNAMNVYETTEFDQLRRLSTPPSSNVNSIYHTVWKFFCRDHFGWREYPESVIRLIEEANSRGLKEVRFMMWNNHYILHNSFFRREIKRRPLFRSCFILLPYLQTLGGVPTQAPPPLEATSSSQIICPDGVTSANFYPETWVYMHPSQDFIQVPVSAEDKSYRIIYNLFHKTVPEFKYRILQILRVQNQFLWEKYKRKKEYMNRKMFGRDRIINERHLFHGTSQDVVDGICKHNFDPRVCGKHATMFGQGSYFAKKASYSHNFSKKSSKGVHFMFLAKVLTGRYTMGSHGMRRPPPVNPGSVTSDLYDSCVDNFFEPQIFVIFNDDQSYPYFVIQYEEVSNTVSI

| Compound | IC50 |
| --- | --- |
| C[C@@H](COCCC(=O)N1CCN(c2ccc(C#N)cn2)CC1)Nc1cn[nH]c(=O)c1Cl [Example 597, 6-(4-[3-[(2S)-2-[(5-Chloro-6-oxo-1,6-dihydropyridazin-4-yl)amino]propoxy]propanoyl]piperazin-1-yl)pyridine-3-carbonitrile] | < 100 nM |
| C[C@@H](COCCC(=O)N1CCN(c2ncc(Cl)cn2)CC1)Nc1cn[nH]c(=O)c1Cl [Example 598, 4-Chloro-5-[[(2S)-1-[3-[4-(5-chloropyrimidin-2-yl)piperazin-1-yl]-3-oxopropoxy]propan-2-yl]amino]-2,3-dihydropyridazin-3-one] | < 100 nM |
| C[C@@H](COCCC(=O)N1CCN(c2ncc(C(F)(F)F)cn2)CC1)Nc1cn[nH]c(=O)c1Cl [Example 599, (S)-4-Chloro-5-(1-(3-oxo-3-(4-(5-(trifluoromethyl)pyrimidin-2-yl)piperazin-1-yl)propoxy)propan-2-ylamino)pyridazin-3(2H)-one] | < 100 nM |
| C[C@@H](COCCC(=O)N1CCN(c2ccc(C#N)cn2)CC1)Nc1cn[nH]c(=O)c1Br [Example 600, 6-(4-[3-[(2S)-2-[(5-bromo-6-oxo-1,6-dihydropyridazin-4-yl)amino]propoxy]propanoyl]piperazin-1-yl)pyridine-3-carbonitrile] | < 100 nM |
| C[C@@H](COCCC(=O)N1CCN(c2ncc(C(F)(F)F)cn2)CC1)Nc1cn[nH]c(=O)c1Br [Example 601, 4-Bromo-5-[[(2S)-1-(3-oxo-3-[4-[5-(trifluoromethyl)pyrimidin-2-yl]piperazin-1-yl]propoxy)propan-2-yl]amino]-2,3-dihydropyridazin-3-one] | < 100 nM |
| C[C@@H](COCCC(=O)N1CCN(c2ncc(Cl)cn2)CC1)Nc1cn[nH]c(=O)c1Br [Example 602] | < 100 nM |
| O=C(CCOC[C@H](CO)Nc1cn[nH]c(=O)c1C(F)(F)F)N1CCN(c2ncc(C(F)(F)F)cn2)CC1 [Example 603, 5-[[(2S)-1-Hydroxy-3-(3-oxo-3-[4-[5-(trifluoromethyl)pyrimidin-2-yl]piperazin-1-yl]propoxy)propan-2-yl]amino]-4-(trifluoromethyl)-2,3-dihydropyridazin-3-one] | < 100 nM |
| O=C(CCOC[C@H](CO)Nc1cn[nH]c(=O)c1C(F)(F)F)N1CCN(c2ccc(C(F)(F)F)cn2)CC1 [Example 604, 5-[[(2S)-1-Hydroxy-3-(3-oxo-3-[4-[5-(trifluoromethyl)pyridin-2-yl]piperazin-1-yl]propoxy)propan-2-yl]amino]-4-(trifluoromethyl)-2,3-dihydropyridazin-3-one] | < 100 nM |
| N#Cc1ccc(N2CCN(C(=O)CCOC[C@@H](Nc3cn[nH]c(=O)c3C(F)(F)F)C3CC3)CC2)nc1 [Example 605, (S)-6-[4-[3-[2-Cyclopropyl-2-[[6-oxo-5-(trifluoromethyl)-1,6-dihydropyridazin-4-yl]amino]ethoxy]propanoyl]piperazin-1-yl]nicotinonitrile] | < 100 nM |
| O=C(CCOC[C@@H](Nc1cn[nH]c(=O)c1C(F)(F)F)C1CC1)N1CCN(c2ncc(C(F)(F)F)cn2)CC1 [Example 606, (S)-5-[(1-Cyclopropyl-2-[3-oxo-3-[4-[5-(trifluoromethyl)pyrimidin-2-yl)piperazin-1-yl]propoxy]-ethyl]amino]-4-(trifluoromethyl)pyridazin-3(2H)-one] | < 100 nM |
| CO[C@H](C)[C@@H](COCCC(=O)N1CCN(c2ncc(C(F)(F)F)cn2)CC1)Nc1cn[nH]c(=O)c1C(F)(F)F [Example 607, 5-[[(2R,3R)-3-Methoxy-1-(3-oxo-3-[4-[5-(trifluoromethyl)pyrimidin-2-yl]piperazin-1-yl]propoxy)butan-2-yl]amino]-4-(trifluoromethyl)-2,3-dihydropyridazin-3-one] | < 100 nM |
| C[C@@H](COCCC(=O)N1CCN(c2ncc(C(F)(F)F)cn2)CC1)Oc1cn[nH]c(=O)c1Br [Example 608, 4-Bromo-5-[[(2S)-1-(3-oxo-3-[4-[5-(trifluoromethyl)pyrimidin-2-yl]piperazin-1-yl]propoxy)propan-2-yl]oxy]-2,3-dihydropyridazin-3-one] | < 100 nM |
| C[C@@H](COCCC(=O)N1CCN(c2ncc(Cl)cn2)CC1)Oc1cn[nH]c(=O)c1Br [Example 609, 4-Bromo-5-[[(2S)-1-[3-[4-(5-chloropyrimidin-2-yl)piperazin-1-yl]-3-oxopropoxy]propan-2-yl]oxy]-2,3-dihydropyridazin-3-one] | < 100 nM |
| C[C@@H](O)[C@@H](COCCC(=O)N1CCN(c2ncc(C(F)(F)F)cn2)CC1)Nc1cn[nH]c(=O)c1C(F)(F)F [Example 610, 5-[[(2R,3R)-3-Hydroxy-1-(3-oxo-3-[4-[5-(trifluoromethyl)pyrimidin-2-yl]piperazin-1-yl]propoxy)butan-2-yl]amino]-4-(trifluoromethyl)-2,3-dihydropyridazin-3-one] | < 100 nM |
| C[C@H](O)[C@@H](COCCC(=O)N1CCN(c2ncc(C(F)(F)F)cn2)CC1)Nc1cn[nH]c(=O)c1C(F)(F)F [Example 611, 5-[[(2R,3S)-3-Hydroxy-1-(3-oxo-3-[4-[5-(trifluoromethyl)pyrimidin-2-yl]piperazin-1-yl]propoxy)butan-2-yl]amino]-4-(trifluoromethyl)-2,3-dihydropyridazin-3-one] | < 100 nM |
| C[C@@H](COCCC(=O)N1CCN(c2cnc(C(F)(F)F)cn2)CC1)Nc1cn[nH]c(=O)c1C(F)(F)F [Example 613, (S)-5-((1-(3-Oxo-3-(4-(5-(trifluoromethyl)pyrazin-2-yl)piperazin-1-yl)propoxy)propan-2-yl)amino)-4-(trifluoromethyl)pyridazin-3(2H)-one] | < 100 nM |
| O=C(CCOC[C@H](Nc1cn[nH]c(=O)c1C(F)(F)F)[C@@H]1CCOC1)N1CCN(c2ncc(C(F)(F)F)cn2)CC1 [Example 614 Isomer D, 5-(((R)-2-(3-Oxo-3-(4-(5-(trifluoromethyl)pyrimidin-2-yl)piperazin-1-yl)propoxy)-1-((S)-tetrahydrofuran-3-yl)ethyl)amino)-4-(trifluoromethyl)pyridazin-3(2H)-one] | < 100 nM |
| C[C@@H](CNCCC(=O)N1CCN(c2ncc(C(F)(F)F)cn2)CC1)Oc1cn[nH]c(=O)c1C(F)(F)F [Example 615, (S)-5-((1-((3-Oxo-3-(4-(5-(trifluoromethyl)pyrimidin-2-yl)piperazin-1-yl)propyl)amino)propan-2-yl)oxy)-4-(trifluoromethyl)pyridazin-3(2H)-one] | 100 to 1000 nM |
| C[C@@H](CN(C)CCC(=O)N1CCN(c2ncc(C(F)(F)F)cn2)CC1)Oc1cn[nH]c(=O)c1C(F)(F)F [Example 616, (S)-5-((1-(Methyl(3-oxo-3-(4-(5-(trifluoromethyl)pyrimidin-2-yl)piperazin-1-yl)propyl)amino)propan-2-yl)oxy)-4-(trifluoromethyl)pyridazin-3(2H)-one] | < 100 nM |
| C[C@@H](COCCC(=O)N1CCN(c2ncc(C(F)(F)F)cn2)CC1)Sc1cn[nH]c(=O)c1C(F)(F)F [Example 618, (S)-5-((1-(3-Oxo-3-(4-(5-(trifluoromethyl)pyrimidin-2-yl)piperazin-1-yl)propoxy)propan-2-yl)thio)-4-(trifluoromethyl)pyridazin-3(2H)-one] | < 100 nM |
| C[C@@H](COCCS(=O)(=O)N1CCN(c2ncc(C(F)(F)F)cn2)CC1)Nc1cn[nH]c(=O)c1C(F)(F)F [Example 620, (S)-4-(Trifluoromethyl)-5-((1-(2-((4-(5-(trifluoromethyl)pyrimidin-2-yl)piperazin-1-yl)sulfonyl)ethoxy)propan-2-yl)amino)pyridazin-3(2H)-one] | < 100 nM |
| C[C@@H](CSCCC(=O)N1CCN(c2ncc(C(F)(F)F)cn2)CC1)Oc1cn[nH]c(=O)c1C(F)(F)F [Example 621A, (S)-5-((1-((3-Oxo-3-(4-(5-(trifluoromethyl)pyrimidin-2-yl)piperazin-1-yl)propyl)thio)propan-2-yl)oxy)-4-(trifluoromethyl)pyridazin-3(2H)-one] | 100 to 1000 nM |
| C[C@H](CSCCC(=O)N1CCN(c2ncc(C(F)(F)F)cn2)CC1)Oc1cn[nH]c(=O)c1C(F)(F)F [Example 621B, (R)-5-((1-((3-Oxo-3-(4-(5-(trifluoromethyl)pyrimidin-2-yl)piperazin-1-yl)propyl)thio)propan-2-yl)oxy)-4-(trifluoromethyl)pyridazin-3(2H)-one] | < 100 nM |
| C[C@@H](COCCC(=O)N1CCN(c2ncc(C(F)(F)F)s2)CC1)Nc1cn[nH]c(=O)c1C(F)(F)F [Example 622, (S)-5-((1-(3-Oxo-3-(4-(5-(trifluoromethyl)thiazol-2-yl)piperazin-1-yl)propoxy)propan-2-yl)amino)-4-(trifluoromethyl)pyridazin-3(2H)-one] | < 100 nM |
| C[C@@H](COCCC(=O)N1CCN(c2ncc(C(C)(C)C)cn2)CC1)Nc1cn[nH]c(=O)c1C(F)(F)F [Example 623, (S)-5-((1-(3-(4-(5-(Tert-butyl)pyrimidin-2-yl)piperazin-1-yl)-3-oxopropoxy)propan-2-yl)amino)-4-(trifluoromethyl)pyridazin-3(2H)-one] | < 100 nM |
| COC[C@@H](COCCS(=O)(=O)N1CCN(c2ncc(C(F)(F)F)cn2)CC1)Nc1cn[nH]c(=O)c1C(F)(F)F [Example 624, (S)-5-((1-Methoxy-3-(2-[(4-(5-(trifluoromethyl)pyrimidin-2-yl)piperazin-1-yl)sulfonyl)ethoxy)propan-2-yl)amino)-4-(trifluoromethyl)pyridazin-3(2H)-one] | < 100 nM |
| C[C@@H](COCCS(=O)(=O)N1CCN(c2ncc(C(F)(F)F)s2)CC1)Oc1cn[nH]c(=O)c1C(F)(F)F [Example 625, (S)-4-(Trifluoromethyl)-5-((1-(2-[(4-(5-(trifluoromethyl)thiazol-2-yl)piperazin-1-yl)sulfonyl)ethoxy)propan-2-yl)oxy)pyridazin-3(2H)-one] | < 100 nM |
| C[C@@H](COCC(O)CN1CCN(c2ncc(C(F)(F)F)cn2)CC1)Nc1cn[nH]c(=O)c1C(F)(F)F (stereo partly drawn) [Example 626, 5-(((2S)-1-(2-Hydroxy-3-(4-(5-(trifluoromethyl)pyrimidin-2-yl)piperazin-1-yl)propoxy)propan-2-yl)amino)-4-(trifluoromethyl)pyridazin-3(2H)-one] | < 100 nM |
